Reference: patent US20250084088A1, “ANTIVIRAL COMPOUNDS AND METHODS OF MAKING AND USING THE SAME” (Gilead Sciences, Inc., priority 2023, published 2025)

Key:
[1] = test system: RSV strain A2; test: RSV Cellomics assay for RSV A2 antiviral activity (EC50-RSV-Hep2-96-Cellomics), Example Z; type: cell-based; details: human respiratory syncytial virus, HEp-2, 72 h; Hep2 cells infected with RSV strain A2, MOI=0.05, 3 days, RSV F protein immunofluorescence
Method: Example Z: RSV Cellomics Assay for RSV A2 Antiviral Activity (EC50-RSV-Hep2-96-Cellomics) 8×10^3 Hep2 cells are seeded into 96 well plates in 100 μL of media (DMEM supplemented with GlutaMAX, 10% FBS and Pen/Strep) and briefly spun at 50×g for 1 minute to attach cells. Cells were further allowed to attach with overnight incubation at 37° C.+5% CO2. The following day, the media was aspirated and 100 μL of fresh DMEM media containing 2% FBS was added. A three-fold dilution series of compounds of interest are then added to the plate using the Tecan D300e dispenser and the plate is normalized to the well with the highest volume of DMSO. The cells are next infected by adding 100 μL of media containing RSV strain A2 at an MOI=0.05 and the plates incubated for 3 days at 37° C.+5% CO2. Following the incubation, the media is removed, and the cells are washed once with 250 μL PBS and fixed with 250 μL ice-cold 100% methanol for 10 minutes at 4 C. The methanol is then removed and the plates air dried for 5 minutes and then washed once with 250 μL PBS to remove any residual methanol. The wells are then blocked 60 μL/well of BlockAid (B10710, Thermo-Fisher) for 1 hour at RT on rocker at which point the blocking buffer is carefully aspirated. Primary antibody against the RSV F protein (MAB 858-1) is then diluted 1:2000 in SuperBlock (37515, Thermo Fisher) and 50 μL of the primary antibody solution is added to each well. The plates are incubated at room temperature for 1 hour with gentle agitation and then washed with 250 μL of PBS-Tween 3 times. A goat anti-mouse AlexaFluor 647 conjugated secondary antibody (Sigma, A21235) is then diluted 1:2000 and Hoescht 33342 (H3570) at 1:1000 in SuperBlock and 50 μL added to the wells for 1 hour at 37° C. After incubation the antibody solution is aspirated, and the wells are then washed with 250 μL of PBS-Tween 3 times. To keep cells from drying out, 100 μL of PBS is added to each well and the plates are sealed with black plate seal. Fluorescence at the 647 nm wavelength is measured using a Cellomics CellInsight CX7 machine. Compound activity is determined as a percentage of the % positive cells (or average intensity) compared to DMSO treated RSV infected well controls following subtraction of uninfected controls. The EC50 values are then calculated using nonlinear regression analysis in GraphPad Prism.

[2] = MT4 CC50 cytotoxicity in uninfected cells (CC50-MT4-384), Example G; type: cell-based; details: human; uninfected MT-4 cells, 4-5 days, Cell-Titer Glo
Method: Example G. HEp-2 and MT4 CC50 Cytotoxicity of the compounds was determined in uninfected cells using the cell viability reagent in a similar fashion as described before for other cell types ([…] et al., ANTIMICROB AGENTS CHEMOTHER. 2008, 52(2):655-65). HEp-2 (1.5×10^3 cells/well) and MT-4 (2×10^3 cells/well) cells were plated in 384-well plates and incubated with the appropriate medium containing 3-fold serially diluted compound ranging from 15 nM to 100,000 nM. Cells were cultured for 4-5 days at 37° C. Following the incubation, the cells were allowed to equilibrate to 25° C., and cell viability was determined by adding Cell-Titer Glo viability reagent. The mixture was incubated for 10 min, and the luminescence signal was quantified using an Envision plate reader. Untreated cell and cells treated at 2 μM puromycin (Sigma, St. Louis, MO) serve as 100% and 0% cell viability control, respectively. The percent of cell viability was calculated for each tested compound concentration relative to the 0% and 100% controls and the CC50 value was determined by non-linear regression as a compound concentration reducing the cell viability by 50%.

In the case of N#C[C@]1(CO)O[C@@H](c2ccc3c(N)ncnn23)[C@H](O)[C@@H]1O [Compound 0, (2R,3S,4R,5S)-5-(4-aminopyrrolo[1,2-f][1,2,4]triazin-7-yl)-3,4-dihydroxy-2-(hydroxymethyl)tetrahydrofuran-2-carbonitrile, reference compound], the EC50 [1] is reported as 9740 nM and the CC50 [2] is reported as greater than 50000 nM.

With CC(=O)O[C@H]1[C@H](c2ccc3c(N)ncnn23)O[C@](C#N)(COC(=O)OCC(C)C)[C@H]1OC(C)=O [Compound 1, (2R,3S,4S,5S)-5-(4-aminopyrrolo[2,1-f][1,2,4]triazin-7-yl)-2-cyano-2-(((isobutoxycarbonyl)oxy)methyl)tetrahydrofuran-3,4-diyl diacetate] the EC50 [1] was 45900 nM and the CC50 [2] was greater than 50000 nM.

CCC(=O)O[C@H]1[C@H](c2ccc3c(N)ncnn23)O[C@](C#N)(COC(=O)OCC(C)C)[C@H]1OC(=O)CC [Compound 2, (2R,3S,4S,5S)-5-(4-aminopyrrolo[2,1-f][1,2,4]triazin-7-yl)-2-cyano-2-(((isobutoxycarbonyl)oxy)methyl)tetrahydrofuran-3,4-diyl dipropionate] gave an EC50 [1] of 49200 nM and a CC50 [2] greater than 50000 nM.

With CC(=O)O[C@H]1[C@H](c2ccc3c(N)ncnn23)O[C@](C#N)(COC(=O)OC(C)C)[C@H]1OC(C)=O [Compound 3, (2R,3S,4S,5S)-5-(4-aminopyrrolo[2,1-f][1,2,4]triazin-7-yl)-2-cyano-2-(((isopropoxycarbonyl)oxy)methyl)tetrahydrofuran-3,4-diyl diacetate] the EC50 [1] was 100000 nM and the CC50 [2] was greater than 50000 nM.

With COC(=O)OC[C@@]1(C#N)O[C@@H](c2ccc3c(N)ncnn23)[C@H](OC(C)=O)[C@@H]1OC(C)=O [Compound 4, (2R,3S,4S,5S)-5-(4-aminopyrrolo[2,1-f][1,2,4]triazin-7-yl)-2-cyano-2-(((methoxycarbonyl)oxy)methyl)tetrahydrofuran-3,4-diyl diacetate] the EC50 [1] was 54000 nM and the CC50 [2] was greater than 50000 nM.

For CCOC(=O)OC[C@@]1(C#N)O[C@@H](c2ccc3c(N)ncnn23)[C@H](OC(C)=O)[C@@H]1OC(C)=O [Compound 5, (2R,3S,4S,5S)-5-(4-aminopyrrolo[2,1-f][1,2,4]triazin-7-yl)-2-cyano-2-(((ethoxycarbonyl)oxy)methyl)tetrahydrofuran-3,4-diyl diacetate], the EC50 [1] was 61500 nM and the CC50 [2] was greater than 50000 nM.

Work on CCOC(=O)OC[C@@]1(C#N)O[C@@H](c2ccc3c(N)ncnn23)[C@H](OC(=O)OCC)[C@@H]1OC(=O)OCC [Compound 6, (2R,3S,4S,5S)-5-(4-aminopyrrolo[2,1-f][1,2,4]triazin-7-yl)-2-cyano-2-(((ethoxycarbonyl)oxy)methyl)tetrahydrofuran-3,4-diyl diethyl bis(carbonate)] yielded an EC50 [1] of 68600 nM and a CC50 [2] greater than 50000 nM.

CC(=O)O[C@H]1[C@H](c2ccc3c(N)ncnn23)O[C@](C#N)(COC(=O)OC(C)OC(=O)[C@H](C(C)C)N(C)C)[C@H]1OC(C)=O (stereo partly drawn) [Compound 7, (2R,3S,4S,5S)-5-(4-aminopyrrolo[2,1-f][1,2,4]triazin-7-yl)-2-cyano-2-((8S)-8-isopropyl-5,9-dimethyl-3,7-dioxo-2,4,6-trioxa-9-azadecyl)tetrahydrofuran-3,4-diyl diacetate] showed a CC50 [2] greater than 50000 nM.
